Results from US7888464B2, “Hepatitis C virus inhibitors” (Bristol-Myers Squibb Company, priority 2006, dated 2011).

Experiments:
Format in all cases: biochemical
[1] = molecular target: T1, HCV NS3/4A protease complex, BMS strain (genotype 1a) (UniProt P27958, species not given/STRAIN_BMS); assay: FRET peptide assay to monitor HCV NS3/4A proteolytic activity (BMS strain); conditions: BMS strain; read-out: IC50 against the NS3/4A BMS strain in the enzyme assay
T1 construct: "DNA encoding the recombinant HCV NS3/4A protease complex (amino acids 1027 to 1711) for these strains" (said of H77 and J4L6S, not expressly of BMS); given for the H77/J4L6S constructs only
Excerpt: (§1) HCV NS3 protease complexes, derived from the BMS strain, H77 strain or J4L6S strain, were generated, as described below. These purified recombinant proteins were generated for use in a homogeneous assay (see below) to provide an indication of how effective compounds of the present disclosure would be in inhibiting HCV NS3 proteolytic activity.
Serum from an HCV-infected patient was obtained from Dr. T. Wright, San Francisco Hospital. An engineered full-length cDNA (compliment deoxyribonucleic acid) template of the HCV genome (BMS strain) was constructed from DNA fragments obtained by reverse transcription-PCR(RT-PCR) of serum RNA (ribonucleic acid) and using primers selected on the basis of homology between other genotype la strains. From the determination of the entire genome sequence, a genotype la was assigned to the HCV isolate according to the classification of Simmonds et al. (See P Simmonds, K A Rose, S Graham, S W Chan, F McOmish, B C Dow, E A Follett, P L Yap and H Marsden, J. Clin. Microbiol., 31(6), 1493-1503 (1993)). […] The infectious clones, H77 (1a genotype) and J4L6S (1b genotype) were obtained from R. Purcell (NIH) and the sequences are published in Genbank (AAB67036, see Yanagi, M., Purcell, R. H., Emerson, S. U. and Bukh, J. Proc. Natl. Acad. Sci. U.S.A. 94(16), 8738-8743 (1997); AF054247, see Yanagi, M., St Claire, M., Shapiro, M., Emerson, S. U., Purcell, R. H. and Bukh, J, Virology 244 (1), 161-172. (1998)).
The H77 and J4L6S strains were used for production of recombinant NS3/4A protease complexes. DNA encoding the recombinant HCV NS3/4A protease complex (amino acids 1027 to 1711) for these strains were manipulated as described by P. Gallinari et al. (see Gallinari P, Paolini C, Brennan D, Nardi C, Steinkuhler C, De Francesco R. Biochemistry. 38(17):5620-32, (1999)). Briefly, a three-lysine solubilizing tail was added at the 3′-end of the NS4A coding region. The cysteine in the P1 position of the NS4A-NS4B cleavage site (amino acid 1711) was changed to a glycine to avoid the proteolytic cleavage of the lysine tag. Furthermore, a cysteine to serine mutation was introduced by PCR at amino acid position 1454 to prevent the autolytic cleavage in the NS3 helicase domain. The variant DNA fragment was cloned in the pET21b bacterial expression vector (Novagen) and the NS3/4A complex was expressed in Escherichia. coli strain BL21 (DE3) (Invitrogen) following the protocol described by P. Gallinari et al. (see Gallinari P, Brennan D, Nardi C, Brunetti M, Tomei L, Steinkuhler C, De Francesco R., J. Virol. 72(8):6758-69 (1998)) with modifications. Briefly, the NS3/4A protease complex expression was induced with 0.5 millimolar (mM) Isopropyl β-D-1-thiogalactopyranoside (IPTG) for 22 hours (h) at 20° C. A typical fermentation (1 Liter (L)) yielded approximately 10 grams (g) of wet cell paste. The cells were resuspended in lysis buffer (10 mL/g) consisting of 25 mM N-(2-Hydroxyethyl)piperazine-N′-(2-Ethane Sulfonic acid) (HEPES), pH 7.5, 20% glycerol, 500 mM Sodium Chloride (NaCl), 0.5% Triton X-100, 1 microgram/milliliter (“μg/mL”) lysozyme, 5 mM Magnesium Chloride (MgCl2), 1 μg/ml DnaseI, 5 mM β-Mercaptoethanol (βME), Protease inhibitor-Ethylenediamine Tetraacetic acid (EDTA) free (Roche), homogenized and incubated for 20 minutes (min) at 4° C. The homogenate was sonicated and clarified by ultra-centrifugation at 235000 g for 1 hour (h) at 4° C. Imidazole was added to the supernatant to a final concentration of 15 mM and the pH adjusted to 8.0. The crude protein extract was loaded on a Nickel-Nitrilotriacetic acid (Ni-NTA) column pre-equilibrated with buffer B (25 mM HEPES, pH 8.0, 20% glycerol, 500 mM NaCl, 0.5% Triton X-100, 15 mM imidazole, 5 mM βME). The sample was loaded at a flow rate of 1 mL/min. The column was washed with 15 column volumes of buffer C (same as buffer B except with 0.2% Triton X-100). The protein was eluted with 5 column volumes of buffer D (same as buffer C except with 200 mM Imidazole). […]

[2] = molecular target: T2, HCV NS3/4A protease complex, J4L6S strain (1b genotype) (Hepatitis C virus genotype 1b, UniProt O92972, C1454S/C1711G); assay: FRET peptide assay to monitor HCV NS3/4A proteolytic activity (J4L6S strain); conditions: read-out: IC50 against NS3/4A J4L6S strain
T2 construct: DNA encoding the recombinant HCV NS3/4A protease complex (amino acids 1027 to 1711) for these strains; made in house; host or cells: Escherichia coli BL21 (DE3), pET21b
Excerpt: as §1
Serum from an HCV-infected patient was obtained from Dr. T. Wright, San Francisco Hospital. An engineered full-length cDNA (compliment deoxyribonucleic acid) template of the HCV genome (BMS strain) was constructed from DNA fragments obtained by reverse transcription-PCR(RT-PCR) of serum RNA (ribonucleic acid) and using primers selected on the basis of homology between other genotype la strains. From the determination of the entire genome sequence, a genotype la was assigned to the HCV isolate according to the classification of Simmonds et al. (See P Simmonds, K A Rose, S Graham, S W Chan, F McOmish, B C Dow, E A Follett, P L Yap and H Marsden, J. Clin. Microbiol., 31(6), 1493-1503 (1993)). […]

[3] = molecular target: T3, porcine pancreatic elastase (PPE) (Sus scrofa, UniProt P00772); assay: Specificity assay, pancreatic elastase; conditions: read-out: PPE activity in the specificity assays
T3 construct: purchased Sigma, EMDbiosciences
Method: The specificities of compounds of the present disclosure were determined against a variety of serine proteases: human neutrophil elastase (HNE), porcine pancreatic elastase (PPE) and human pancreatic chymotrypsin and one cysteine protease: human liver cathepsin B. In all cases a 96-well plate format protocol using a fluorometric Amino-Methyl-Coumarin (AMC) substrate specific for each enzyme was used as described previously (PCT Patent Application No. WO 00/09543) with some modifications to the serine protease assays. All enzymes were purchased from Sigma, EMDbiosciences while the substrates were from Bachem, Sigma and EMDbiosciences.
Compound concentrations varied from 100 to 0.4 μM depending on their potency. The enzyme assays were each initiated by addition of substrate to enzyme-inhibitor pre-incubated for 10 min at room temperature and hydrolysis to 15% conversion as measured on cytofluor.
50 mM Tris-HCl, pH 8.0, 50 mM NaCl, 0.1 mM EDTA, 3% DMSO, 0.02% Tween-20, 5 μM succ-AAPV-AMC and 20 nM HNE or 8 nM PPE;
The percentage of inhibition was calculated using the formula: [1−((UVinh−UVblank)/(UVctl−UVblank))]×100
A non-linear curve fit was applied to the inhibition-concentration data, and the 50% effective concentration (IC50) was calculated by the use of Excel XLfit software.

T1 sequence (P27958 1027-1657, stated change not applied, one chain of several): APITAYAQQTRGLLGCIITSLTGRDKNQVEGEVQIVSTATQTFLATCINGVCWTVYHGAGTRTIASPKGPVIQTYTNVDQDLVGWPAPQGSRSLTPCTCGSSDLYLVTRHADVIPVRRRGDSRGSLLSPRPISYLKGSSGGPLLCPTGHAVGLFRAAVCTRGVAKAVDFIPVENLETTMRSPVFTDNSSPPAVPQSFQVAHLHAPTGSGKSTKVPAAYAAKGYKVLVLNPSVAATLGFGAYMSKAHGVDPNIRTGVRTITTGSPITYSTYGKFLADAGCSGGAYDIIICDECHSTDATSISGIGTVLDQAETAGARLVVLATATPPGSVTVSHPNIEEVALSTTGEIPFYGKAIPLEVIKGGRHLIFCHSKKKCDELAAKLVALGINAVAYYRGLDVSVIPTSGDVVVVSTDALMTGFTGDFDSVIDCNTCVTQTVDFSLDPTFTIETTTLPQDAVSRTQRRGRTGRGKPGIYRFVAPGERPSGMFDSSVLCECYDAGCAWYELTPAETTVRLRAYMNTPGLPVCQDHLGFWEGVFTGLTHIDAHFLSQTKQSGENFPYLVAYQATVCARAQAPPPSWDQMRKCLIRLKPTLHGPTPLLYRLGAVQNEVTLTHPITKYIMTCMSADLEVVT
T3 sequence (P00772 27-266): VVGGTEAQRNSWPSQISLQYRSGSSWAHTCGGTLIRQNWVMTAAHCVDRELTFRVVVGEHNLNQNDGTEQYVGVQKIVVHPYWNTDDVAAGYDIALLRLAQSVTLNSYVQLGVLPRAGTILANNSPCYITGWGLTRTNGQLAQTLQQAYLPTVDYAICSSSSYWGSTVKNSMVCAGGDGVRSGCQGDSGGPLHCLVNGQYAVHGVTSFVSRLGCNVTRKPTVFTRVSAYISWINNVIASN
T2 sequence (O92972 1027-1711 C1454S/C1711G, one chain of several): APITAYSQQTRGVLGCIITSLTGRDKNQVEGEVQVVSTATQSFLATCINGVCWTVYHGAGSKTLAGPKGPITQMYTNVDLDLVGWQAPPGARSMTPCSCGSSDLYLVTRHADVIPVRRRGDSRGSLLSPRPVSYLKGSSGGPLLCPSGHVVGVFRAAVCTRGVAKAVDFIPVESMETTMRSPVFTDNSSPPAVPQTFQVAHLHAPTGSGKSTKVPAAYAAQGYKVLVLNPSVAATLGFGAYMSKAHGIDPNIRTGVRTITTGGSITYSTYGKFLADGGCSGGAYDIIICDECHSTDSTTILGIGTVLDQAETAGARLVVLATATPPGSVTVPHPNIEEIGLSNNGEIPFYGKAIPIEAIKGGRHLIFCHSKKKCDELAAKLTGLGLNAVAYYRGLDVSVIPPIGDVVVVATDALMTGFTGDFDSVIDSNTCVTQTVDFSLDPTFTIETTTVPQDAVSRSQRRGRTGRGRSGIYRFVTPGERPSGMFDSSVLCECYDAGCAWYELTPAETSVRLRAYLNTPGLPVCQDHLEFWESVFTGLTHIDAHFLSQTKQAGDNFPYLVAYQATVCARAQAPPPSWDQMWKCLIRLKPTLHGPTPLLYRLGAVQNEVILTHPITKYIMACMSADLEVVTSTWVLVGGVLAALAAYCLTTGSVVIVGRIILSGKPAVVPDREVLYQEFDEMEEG

**Q.** Which results are given for C=C[C@@H]1C[C@]1(NC(=O)[C@@H]1C[C@@](O)(c2ccc(-c3ccccc3)cc2)CN1C(=O)[C@@H](NC(=O)OC(C)(C)C)C(C)(C)C)C(=O)NS(=O)(=O)C1CC1 [Compound 3]?
**A.** IC50 [1]: 4.4 nM; IC50 [2]: 1.1 nM; IC50 [3]: > 100000 nM
